From publication PMC3183289 (Bioorganic & medicinal chemistry, 2011)
Where two headings read alike, the source gives them in different places. Blank lines part the entries; values can stand above or below the molecule they belong to.

Experiments:
[1] = tested on: mPGES-1; conditions: cited from earlier work
[2] = target: T1, recombinant mPGES-1 (Homo sapiens, UniProt O14684); assay: in vitro mPGES-1 enzyme activity assay; format: biochemical; conditions: −RTln(Kd) ≈ −RTln(IC50), from measured IC50
T1 sequence (O14684 1-152): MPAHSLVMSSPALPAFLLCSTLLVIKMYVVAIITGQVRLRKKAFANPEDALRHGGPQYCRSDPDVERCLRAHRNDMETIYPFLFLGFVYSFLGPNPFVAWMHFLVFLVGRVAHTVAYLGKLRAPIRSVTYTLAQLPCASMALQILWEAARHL

Structure (SMILES): CSc1ccc(/C=C2/C(C)=C(CC(=O)O)c3cc(F)ccc32)cc1
IC50 [1]: 80 µM

ΔGbind^Exp [2]: -7.44 kcal/mol
Structure (SMILES): COCCN(c1ccc(/C=C2\S/C(=N\c3ccccc3)N(C(C)C(=O)O)C2=O)cc1)c1ccccc1OC (stereo not drawn) [Compound 3]

Structure (SMILES): CCCCC/C=C\C\C=C/C=C/C=C/[C@@H](SC[C@H](NC(=O)CC[C@H](N)C(=O)O)C(=O)NCC(=O)O)[C@@H](O)CCCC(=O)O [Leukotriene C4]
IC50 ([1]; probably by competing with glutathione): micromolar
